This assay deals with gel-filtered human thrombocytes. Description: Inhibition of the aggregation of gel-filtered human thrombocytes following stimulation with ADP or thrombin (Test method 1). The conditions noted are these: 1 mg/ml fibrinogen, 37° C., GFP from 2-4 donors. Type of assay: cell-based. As for the experimental part:
As a functional test, measurement is made of the inhibition of the aggregation of gel-filtered human thrombocytes, following stimulation with ADP or thrombin, by the compounds according to the invention.
For this purpose, human thrombocytes were isolated from platelet-rich plasma (PRP) by gel filtration on Sepharose 2 B. The resulting suspension of gel-filtered platelets (GFP), which contained 3×10^8 platelets/ml, was activated in the presence of 1 mg/ml of fibrinogen either with 10 μM ADP or with 0.1 U/ml thrombin, and stirred in an aggregometer (PAP 4, Biodata, Hatboro, Penna., USA) at 37° C. and at 1000 revolutions per minute. The maximum increase in the translucency is taken as a measure of the aggregation. The test substances were added to the GFP at 37° C. and 2 min before activating with ADP or thrombin.

Where [1] appears, read: Homo sapiens, ADP-stimulated (10 μM ADP), read-out: IC50, inhibition of thrombocyte aggregation, ADP-stimulated.
Setting [2] is: Homo sapiens, Thrombin-stimulated (0.1 U/ml thrombin), read-out: IC50, inhibition of thrombocyte aggregation, Thrombin-stimulated.
[3] abbreviates: ADP-stimulated (10 μM ADP), read-out: IC50, inhibition of thrombocyte aggregation, ADP-stimulated.
[4] abbreviates: Thrombin-stimulated (0.1 U/ml thrombin), read-out: IC50, inhibition of thrombocyte aggregation, Thrombin-stimulated.

In US6191282A, “Substituted 5-membered ring heterocycles comprising a bicyclic or tricyclic group their preparation and their use” (Hoechst Marion Roussel, priority 1993, dated 2001) one finds IC50 data, which are given here for 22 compounds.

What is called IC50 is the concentration that gives 50% inhibition.

Like-named read-outs stand apart in the source and are kept apart here.

`CCCCCC(=O)NC(CNC(=O)CN1C(=O)NC(C)(c2ccc(C(=N)N)cc2)C1=O)C(=O)O` (racemic) [Example 30, (R,S)-3-(((R,S)-4-(4-(Aminoiminomethyl)phenyl)-4-methyl-2,5-dioxoimidazolidin-1-yl)acetylamino)-2-pentylcarbonylaminopropionic acid]: the half-maximal inhibitory concentration (IC50) under setting [1] was 500 nM and the 50% inhibitory concentration (IC50) under setting [2] came out at 400 nM.

In the case of `CCCCCC(=O)NC(CNC(=O)CN1C(=O)N(C)C(C)(c2ccc(C(=N)N)cc2)C1=O)C(=O)O` (racemic) [Example 31, (R,S)-3-(((R,S)-4-(4-(Aminoiminomethyl)phenyl)-3,4-dimethyl-2,5-dioxoimidazolidin-1-yl)acetylamino)-2-pentylcarbonylaminopropionic acid], the concentration for half-maximal inhibition (IC50) by setting is: under setting [1], 3000 nM; under setting [2], 600 nM.

Take `CCCCS(=O)(=O)NC(CNC(=O)CN1C(=O)NC(C)(c2ccc(C(=N)N)cc2)C1=O)C(=O)O` (racemic) [Example 32, (R,S)-3-(((R,S)-4-(4-(Aminoiminomethyl)phenyl)-4-methyl-2,5-dioxoimidazolidin-1-yl)acetylamino)-2-butylsulphonylaminopropionic acid]: the IC50 stood at 200 nM under setting [1] and 150 nM under setting [2].

As for `CCCCS(=O)(=O)NC(CNC(=O)CN1C(=O)N(C)C(C)(c2ccc(C(=N)N)cc2)C1=O)C(=O)O` (racemic) [Example 33, (R,S)-3-(((R,S)-4-(4-(Aminoiminomethyl)phenyl)-3,4-dimethyl-2,5-dioxoimidazolidin-1-yl)acetylamino)-2-butylsulphonylaminopropionic acid], the IC50 reads like this: under setting [1], 500 nM; under setting [2], 200 nM.

As to `CC1(c2ccc(C(=N)N)cc2)NC(=O)N(CC(=O)NC(CS(=O)(=O)NC(=O)Nc2ccccc2)C(=O)OCc2ccccc2)C1=O` (racemic) [Example 34, 2-((R,S)-4-(4-Aminoiminomethyl)phenyl)-4-methyl-2,5-dioxoimidazolidin-1-yl)-N-((R,S)-1-benzyloxycarbonyl-2-(3-phenylureidosulphonyl)ethyl)acetamide], the IC50 reads like this: under setting [1], 2500 nM; under setting [2], 1500 nM.

For the compound `COc1ccc(C(CC(=O)O)NC(=O)CN2C(=O)NC(C)(c3ccc(C(=N)N)cc3)C2=O)cc1O` (racemic) [Example 35, (R,S)-3-(((R,S)-4-(4-(Aminoiminomethyl)phenyl)-4-methyl-2,5-dioxoimidazolidin-1-yl)acetylamino)-3-(3-hydroxy-4-methoxyphenyl)propionic acid], the 50% inhibitory concentration (IC50) runs as follows: under setting [1], 100 nM; under setting [2], 300 nM.

As to `COc1cc(C(CC(=O)O)NC(=O)CN2C(=O)NC(C)(c3ccc(C(=N)N)cc3)C2=O)ccc1O` (racemic) [Example 36, (R,S)-3-(((R,S)-4-(4-(Aminoiminomethyl)phenyl)-4-methyl-2,5-dioxoimidazolidin-1-yl)acetylamino)-3-(4-hydroxy-3-methoxyphenyl)propionic acid], the IC50 amounted to 200 nM under setting [1] and 150 nM under setting [2].

For `CCOc1ccc(C(CC(=O)O)NC(=O)CN2C(=O)NC(C)(c3ccc(C(=N)N)cc3)C2=O)cc1` (racemic) [Example 37, (R,S)-3-(((R,S)-4-(4-(Aminoiminomethyl)phenyl)-4-methyl-2,5-dioxoimidazolidin-1-yl)acetylamino)-3-(4-ethoxyphenyl)propionic acid], the IC50 is 100 nM under setting [1] and 200 nM under setting [2].

Regarding `CC1(c2ccc(C(=N)N)cc2)NC(=O)N(CC(=O)NC(CC(=O)O)c2cccc3ccccc23)C1=O` (racemic) [Example 38, (R,S)-3-(((R,S)-4-(4-(Aminoiminomethyl)phenyl)-4-methyl-2,5-dioxoimidazolidin-1-yl)acetylamino)-3-(1-naphthyl)propionic acid], the half-inhibitory concentration (IC50) is, setting by setting: under setting [1], 300 nM; under setting [2], 350 nM.

Consider `CC1(c2ccc(C(=N)N)cc2)NC(=O)N(CC(=O)NC(CC(=O)O)c2cccc(OCc3ccccc3)c2)C1=O` (racemic) [Example 41, (R,S)-3-(((R,S)-4-(4-(Aminoiminomethyl)phenyl)-4-methyl-2,5-dioxoimidazolidin-1-yl)acetylamino)-3-(3-benzyloxyphenyl)propionic acid], for which the IC50 was 100 nM under setting [1] and 150 nM under setting [2].

As to `CC1(c2ccc(C(=N)N)cc2)NC(=O)N(CC(=O)NC(CC(=O)O)c2cccc(C(=O)O)c2)C1=O` (racemic) [Example 42, (R,S)-3-(((R,S)-4-(4-(Aminoiminomethyl)phenyl)-4-methyl-2,5-dioxoimidazolidin-1-yl)acetylamino)-3-(3-hydroxycarbonylphenyl)propionic acid], the IC50 is 300 nM under setting [1] and 200 nM under setting [2].

For the compound `CC1(c2ccc(C(=N)N)cc2)NC(=O)N(CC(=O)NC(CC(=O)O)c2cccc(Oc3ccccc3)c2)C1=O` (racemic) [Example 43, (R,S)-3-(((R,S)-4-(4-(Aminoiminomethyl)phenyl)-4-methyl-2,5-dioxoimidazolidin-1-yl)acetylamino)-3-(3-phenoxyphenyl)propionic acid], the IC50 is, setting by setting: under setting [1], 500 nM; under setting [2], 500 nM.

`COc1cc(C(CC(=O)O)NC(=O)CN2C(=O)NC(C)(c3ccc(C(=N)N)cc3)C2=O)cc(OC)c1OC` (racemic) [Example 44, (R,S)-3-(((R,S)-4-(4-(Aminoiminomethyl)phenyl)-4-methyl-2,5-dioxoimidazolidin-1-yl)acetylamino)-3-(3,4,5-trimethoxyphenyl)propionic acid]: the concentration for half-maximal inhibition (IC50) came out at 400 nM under setting [1] and 200 nM under setting [2].

Regarding `CC1(c2ccc(C(=N)N)cc2)NC(=O)N(CC(=O)NC(CC(=O)O)c2ccc(O)cc2)C1=O` (racemic) [Example 45, (R,S)-3-(((R,S)-4-(4-(Aminoiminomethyl)phenyl)-4-methyl-2,5-dioxoimidazolidin-1-yl)acetylamino)-3-(4-hydroxyphenyl)priopionic acid], the IC50 under setting [1] came to 200 nM and the concentration for half-maximal inhibition (IC50) under setting [2] was found to be 200 nM.

For the compound `CC1(c2ccc(C(=N)N)cc2)NC(=O)N(CC(=O)NC(CC(=O)O)c2cccnc2)C1=O` (racemic) [Example 47, (R,S)-3-(((R,S)-4-(4-(Aminoiminomethyl)phenyl)-4-methyl-2,5-dioxoimidazolidin-1-yl)acetylamino)-3-(3-pyridyl)propionic acid], the IC50 was 100 nM under setting [1] and 150 nM under setting [2].

`CC1(c2ccc(C(=N)N)cc2)NC(=O)N(CC(=O)NC(CC(=O)O)C2CCCCC2)C1=O` (racemic) [Example 49, (R,S)-3-(((R,S)-4-(4-(Aminoiminomethyl)phenyl)-4-methyl-2,5-dioxoimidazolidin-1-yl)acetylamino)-3-cyclohexylpropionic acid]: the IC50 by setting is: under setting [1], 600 nM; under setting [2], 200 nM.

In the case of `CN1C(=O)N(CC(=O)NC(CC(=O)O)c2ccccc2)C(=O)C1(C)c1ccc(C(=N)N)cc1` (racemic) [Example 50, (R,S)-3-(((R,S)-4-(4-(Aminoiminomethyl)phenyl)-3,4-dimethyl-2,5-dioxoimidazolidin-1-yl)acetylamino)-3-phenylpropionic acid], the half-maximal inhibitory concentration (IC50) amounted to 550 nM under setting [1] and 400 nM under setting [2].

For `CCN1C(=O)N(CC(=O)NC(CC(=O)O)c2ccccc2)C(=O)C1(C)c1ccc(C(=N)N)cc1` (racemic) [Example 52, (R,S)-3-(((R,S)-4-(4-(Aminoiminomethyl)phenyl)-3-ethyl-4-methyl-2,5-dioxoimidazolidin-1-yl)acetylamino)-3-phenylpropionic acid], the IC50 under setting [1] turned out to be 500 nM and the IC50 under setting [2] came to 400 nM.

As to `CC1(c2ccc(C(=N)N)cc2)NC(=O)N(CC(=O)NC(CC(=O)O)c2ccc3c(c2)OCO3)C1=O` (racemic) [Example 67, (R,S)-3-(((R,S)-4-(4-(aminoiminomethyl)phenyl)-4-methyl-2,5-dioxoimidazolidin-1-yl)acetylamino)-3-(3,4-methylenedioxyphenyl)propionic acid], the 50% inhibitory concentration (IC50) runs as follows: under setting [1], 80 nM; under setting [2], 200 nM.

Regarding `CC1(c2ccc(C(=N)N)cc2)NC(=O)N(CC(=O)N[C@H](CC(=O)O)c2ccccc2)C1=O` (single isomer, unassigned) [Example 59, (R)-3-(((S or R)-4-(4-(aminoiminomethyl)phenyl)-4-methyl-2,5-dioxoimidazolidin-1-yl)acetylamino)-3-phenylpropionic acid], the concentration for half-maximal inhibition (IC50) was 50000 nM under setting [3] and 40000 nM under setting [4].

In the case of `CC1(c2ccc(C(=N)N)cc2)NC(=O)N(CC(=O)N[C@H](CC(=O)O)c2ccccc2)C1=O` (single isomer, unassigned) [Example 60, (R)-3-(((R or S)-4-(4-(aminoiminomethyl)phenyl)-4-methyl-2,5-dioxoimidazolidin-1-yl)acetylamino)-3-phenylpropionic acid], the IC50 by setting is: under setting [3], 5000 nM; under setting [4], 4000 nM.

With `CC1(c2ccc(C(=N)N)cc2)NC(=O)N(CC(=O)NC[C@H](NC(=O)OCc2ccccc2)C(=O)O)C1=O` (stereo partly drawn) [Example 6, 3-(((R,S)-4-(4-(Aminoiminomethyl)phenyl)-4-methyl-2,5-dioxoimidazolidin-1-yl)acetylamino)-2-benzyloxycarbonylaminopropionic acid], the IC50 is 2500 nM under setting [1] and 800 nM under setting [2].
